Measured values from patent publication US20130090516A1, “Local Anesthesia By Magnet-Directed Concentration of Nanoparticle Conjugated Anesthetic” (CARNEGIE MELLON UNIVERSITY, priority 2011, published 2013).

Legend:
[1] = rat, in vivo
Procedure: (§2) The experiments were done after placing the animals under isoflurane anesthesia and spontaneous ventilation. A volume of 2 milliliters of the injectate was given at 5-15° C. intravenously via a tail vein cannula over four to five minutes. A jugular catheter was inserted where necessary for blood withdrawals.
(§3) A separate set of two animals for each condition were used to assess ropivacaine concentration in the ankle.
(§4) In all groups, 0.3 ml of blood was withdrawn at baseline, at 15 minutes, and at 30 minutes for plasma ropivacaine determination. At 30 minutes, skin and subcutaneous tissue all around the right ankle were isolated for ropivacaine analysis. Analysis was performed by HPLC-MS-MS.
Again, data are presented as mean (SD)

[2] = system: Sprague Dawley rats; assay: Acute toxicity after intravenous injection (cardiopulmonary arrest as evidence of toxicity); type: in vivo, rat; conditions: 1.2 mg intravenous
Procedure: Conjugated nanoparticles so prepared may be injected intravenously into a subject. […] The efficacy as a local anesthetic when concentrated with an external magnet was assessed in the following experiment.
Specifically, acute toxicity studies of unconjugated magnetic nanoparticles, assay of plasma concentration of ropivacaine, and measurement of tissue concentration of ropivacaine at the ankle were performed.
Acute toxicity studies of unconjugated magnetic nanoparticles were conducted in 10 animals. Cardiopulmonary arrest was taken as evidence of toxicity.
(§1) Each group included 3 animals. A volume of 0.3 ml of blood was drawn before injection, and at 15, 30, 60, 120, 180, 240 and 300 minutes after the injections. […] The animals in groups Bplasma and Cplasma had 14 mg of ropivacaine complexed with MNPs. In group Cplasma, the magnet assembly used in Example 2 was placed around the right ankle before injection and removed after 30 minutes.

[3] = Ropivacaine concentration in ankle tissue and plasma at 30 minutes (HPLC-MS-MS); conditions: Group A, ropivacaine only, 0.5 h
Procedure: as §2, §3, §4
Again, data are presented as mean (SD)

[4] = Plasma concentration / pharmacokinetics of ropivacaine after intravenous administration; type: in vivo, rat
Procedure: For the assessment of plasma concentration of ropivacaine, the following groups were studied:
as §1
After intravenous administration, the plasma concentration of ropivacaine declined in an exponential manner as expected, in all three groups. Group Aplasma cannot be directly compared to the other two groups because the close in group Aplasma was 14 times lower. Between groups Bplasma and Cplasma, there were no differences in any parameter. Data are presented as mean (SD). Lambda-Z is defined as terminal elimination rate constant. AUC is the area under the concentration curve. Vd is the volume of distribution. Cl is clearance rate. N/A means not applicable. Listed probability values are established through t-tests between groups B and C.

[5] = system: Sprague Dawley rats; assay: Hargreaves test of thermal nociception (paw withdrawal latency); type: in vivo, rat; conditions: subcutaneous 0.8 ml of 0.1% or 0.2%, six animals each
Description: Sprague Dawley rats (300-350 grams) were used to assess the efficacy of formulations of ropivacaine generated as described above. The Hargreaves test of thermal nociception evaluates the level of sensory anesthesia of the plantar surface of the paw and was used to assess pain sensation here. Animals were placed in individual Plexiglas testing chambers in a modified Hargreaves box. Hargreaves et al., 1988, which is hereby incorporated by reference. A very low power idle intensity beam was used to initially target the plantar surface of the hind paw. Once appropriately placed, the beam was switched to a higher power active intensity (approximately 50% of maximum intensity). This causes radiant heat stimulation of the plantar hind paw and allows for a measure of the latency of the rat's paw withdrawal threshold.
Before each experiment, baseline nociception testing was performed on the animals. In all experiments, the left paws were used as controls and the right paws were utilized in the treatment condition. Rats were anesthetized using the general anesthetic isoflurane, awaked after a designated time, and the paws were tested after their returned to baseline wakefulness (approximately 5-10 minutes). Each hind paw was tested at 5 minute intervals for 40 minutes and at 10-minute intervals for 120 minutes. […]

SMILES: CCCN1CCCC[C@H]1C(=O)Nc1c(C)cccc1C [Plain ropiv, ropivacaine]
- factor by which absolute tissue drug concentration was higher than groups B and C [1]: 7-10
- lethality [2]: lethal
- Ratio of tissue to plasma concentration [3]: 3.12
- Cmax ([4]; Group A, 1 mg ropivacaine iv, mean): 863.3 ng/mL
- Cmax (dose normalized) ([4]; rat, in vivo, iv): 863.3 ng/mL/mg
- AUC (0-inf) ([4]; rat, in vivo, iv, 1 mg): 875 ng·h/mL
- Cl (clearance rate) ([4]; rat, in vivo, iv, 1 mg): 1462 mL/h
- Half life ([4]; rat, in vivo, iv, 1 mg): 97.8 min
- Tmax ([4]; rat, in vivo, iv, 1 mg): 15 min
- Vd (volume of distribution) ([4]; rat, in vivo, iv, 1 mg): 3180 mL
- traditional nerve block (ankle block) [5]: achieved
